Test results published in patent US20240228504A1, “SUBSTITUTED TRICYCLIC AMIDES, ANALOGUES THEREOF, AND METHODS USING SAME” (Arbutus Biopharma Corporation, priority 2020, published 2024).
Like-named read-outs stand apart in the source and are kept apart here.

Test system: HBV rcDNA in HepDE19 cells
Assay: HepDE19 assay with bDNA quantitation of HBV rcDNA
Format: cell-based, hepatitis B virus
Conditions: inhibition of rcDNA formation, bDNA quantitation, read-out: DE-19bDNA EC50
[1] = Hepatitis B virus, HepDE19, HepDE19 assay

Structure (SMILES): CN(C(=O)c1cc(F)c(C(F)F)c(F)c1)C1CNCc2[nH]c(=O)c3cc(F)c(F)cc3c21 (single isomer, unassigned) [Compound 184, N-(8,9-Difluoro-6-oxo-1,2,3,4,5,6-hexahydrobenzo[c][1,7]naphthyridin-1-yl)-4-(difluoromethyl)-3,5-difluoro-N-methylbenzamide]
- EC50 (HepDE19 assay): 70 nM

Structure (SMILES): CN(C(=O)c1cc(F)c(C(F)F)c(F)c1)C1CNCc2[nH]c(=O)c3cc(F)ccc3c21 (single isomer, unassigned) [Compound 185, 4-(Difluoromethyl)-3,5-difluoro-N-(8-fluoro-6-oxo-1,2,3,4,5,6-hexahydrobenzo[c][1,7]naphthyridin-1-yl)-N-methylbenzamide]
- EC50 (HepDE19 assay): 24000 nM

Structure (SMILES): CN(C(=O)c1cc(F)c(C(F)F)c(F)c1)C1CNCc2[nH]c(=O)c3cc(F)ccc3c21 (single isomer, unassigned) [Compound 186, 4-(Difluoromethyl)-3,5-difluoro-N-(8-fluoro-6-oxo-1,2,3,4,5,6-hexahydrobenzo[c][1,7]naphthyridin-1-yl)-N-methylbenzamide]
- EC50 (HepDE19 assay): 200 nM

Structure (SMILES): CN(C(=O)C(N)c1ccc(Cl)cc1)[C@@H]1COCc2[nH]c(=O)c3cc(F)c(F)cc3c21 (single isomer, unassigned) [Compound 199]
- EC50 [1]: 14700 nM

Structure (SMILES): CN(C(=O)C(N)c1cccc(Cl)c1)[C@@H]1COCc2[nH]c(=O)c3cc(F)c(F)cc3c21 (single isomer, unassigned) [Compound 202]
- EC50 [1]: 16000 nM

Structure (SMILES): CN(C(=O)c1cc2c(C(F)F)cccc2[nH]1)C1CNCc2[nH]c(=O)c3cc(F)c(F)cc3c21 (single isomer, unassigned) [Compound 207, N-(8,9-Difluoro-6-oxo-1,2,3,4,5,6-hexahydrobenzo[c][1,7]naphthyridin-1-yl)-4-(difluoromethyl)-N-methyl-1H-indole-2-carboxamide]
- EC50 (HepDE19 assay): 5600 nM

Structure (SMILES): CN(C(=O)c1cc2c(C(F)F)cccc2[nH]1)C1CNCc2[nH]c(=O)c3cc(F)c(F)cc3c21 (single isomer, unassigned) [Compound 208, N-(8,9-Difluoro-6-oxo-1,2,3,4,5,6-hexahydrobenzo[c][1,7]naphthyridin-1-yl)-4-(difluoromethyl)-N-methyl-1H-indole-2-carboxamide]
- EC50 (HepDE19 assay): 30 nM

Structure (SMILES): CN(C(=O)c1cc2c(C(F)F)cccc2[nH]1)C1CNCc2[nH]c(=O)c3cc(F)ccc3c21 (single isomer, unassigned) [Compound 209, N-(8-Fluoro-6-oxo-1,2,3,4,5,6-hexahydrobenzo[c][1,7]naphthyridin-1-yl)-4-(difluoromethyl)-N-methyl-1H-indole-2-carboxamide]
- EC50 (HepDE19 assay): 4400 nM

Structure (SMILES): CN(C(=O)c1cc2c(C(F)F)cccc2[nH]1)C1CNCc2[nH]c(=O)c3cc(F)ccc3c21 (single isomer, unassigned) [Compound 210, N-(8-Fluoro-6-oxo-1,2,3,4,5,6-hexahydrobenzo[c][1,7]naphthyridin-1-yl)-4-(difluoromethyl)-N-methyl-1H-indole-2-carboxamide]
- EC50 (HepDE19 assay): 40 nM

Structure (SMILES): CN(C(=O)c1cc2cc(F)c(C(F)F)cc2[nH]1)C1COCc2[nH]c(=O)c3cc(F)ccc3c21 (single isomer, unassigned) [Compound 217, 6-(Difluoromethyl)-5-fluoro-N-(8-fluoro-6-oxo-1,4,5,6-tetrahydro-2H-pyrano[3,4-c]isoquinolin-1-yl)-N-methyl-1H-indole-2-carboxamide]
- EC50 (HepDE19 assay): 880 nM

Structure (SMILES): CN(C(=O)c1cc2cc(F)c(C(F)F)cc2[nH]1)C1COCc2[nH]c(=O)c3cc(F)ccc3c21 (single isomer, unassigned) [Compound 218, 6-(Difluoromethyl)-5-fluoro-N-(8-fluoro-6-oxo-1,4,5,6-tetrahydro-2H-pyrano[3,4-c]isoquinolin-1-yl)-N-methyl-1H-indole-2-carboxamide]
- EC50 (HepDE19 assay): 30 nM

Structure (SMILES): CN(C(=O)c1cc2cc(F)c(C(F)F)cc2[nH]1)C1CNCc2[nH]c(=O)c3cc(F)c(F)cc3c21 (single isomer, unassigned) [Compound 220, N-(8,9-Difluoro-6-oxo-1,2,3,4,5,6-hexahydrobenzo[c][1,7]naphthyridin-1-yl)-6-(difluoromethyl)-5-fluoro-N-methyl-1H-indole-2-carboxamide]
- EC50 (HepDE19 assay): 2450 nM

Structure (SMILES): CN(C(=O)c1cc2cc(F)c(C(F)F)cc2[nH]1)C1CNCc2[nH]c(=O)c3cc(F)c(F)cc3c21 (single isomer, unassigned) [Compound 221, N-(8,9-Difluoro-6-oxo-1,2,3,4,5,6-hexahydrobenzo[c][1,7]naphthyridin-1-yl)-6-(difluoromethyl)-5-fluoro-N-methyl-1H-indole-2-carboxamide]
- EC50 (HepDE19 assay): 30 nM

Structure (SMILES): CN(C(=O)c1cc2ccc(F)cn2c1)C1CNCc2[nH]c(=O)c3cc(F)c(F)cc3c21 (single isomer, unassigned) [Compound 222, N-(8,9-Difluoro-6-oxo-1,2,3,4,5,6-hexahydrobenzo[c][1,7]naphthyridin-1-yl)-6-fluoro-N-methylindolizine-2-carboxamide]
- EC50 (HepDE19 assay): 7070 nM

Structure (SMILES): CN(C(=O)c1cc2ccc(F)cn2c1)C1CNCc2[nH]c(=O)c3cc(F)c(F)cc3c21 (single isomer, unassigned) [Compound 223, N-(8,9-Difluoro-6-oxo-1,2,3,4,5,6-hexahydrobenzo[c][1,7]naphthyridin-1-yl)-6-fluoro-N-methylindolizine-2-carboxamide]
- EC50 (HepDE19 assay): 30 nM

Structure (SMILES): CN(C(=O)c1cc2c(C(F)F)cc(F)cc2[nH]1)C1COCc2[nH]c(=O)c3cc(F)ccc3c21 (single isomer, unassigned) [Compound 238, 4-(Difluoromethyl)-6-fluoro-N-(8-fluoro-6-oxo-1,4,5,6-tetrahydro-2H-pyrano[3,4-c]isoquinolin-1-yl)-N-methyl-1H-indole-2-carboxamide]
- EC50 (HepDE19 assay): 1400 nM

Structure (SMILES): CN(C(=O)c1cc2c(C(F)F)cc(F)cc2[nH]1)C1COCc2[nH]c(=O)c3cc(F)ccc3c21 (single isomer, unassigned) [Compound 239, 4-(Difluoromethyl)-6-fluoro-N-(8-fluoro-6-oxo-1,4,5,6-tetrahydro-2H-pyrano[3,4-c]isoquinolin-1-yl)-N-methyl-1H-indole-2-carboxamide]
- EC50 (HepDE19 assay): 10 nM

Structure (SMILES): CN(C(=O)c1cc2c(C(F)F)c(F)ccc2[nH]1)C1COCc2[nH]c(=O)c3cc(F)ccc3c21 (single isomer, unassigned) [Compound 255, 4-(Difluoromethyl)-5-fluoro-N-(8-fluoro-6-oxo-1,4,5,6-tetrahydro-2H-pyrano[3,4-c]isoquinolin-1-yl)-N-methyl-1H-indole-2-carboxamide]
- EC50 (HepDE19 assay): 680 nM

Structure (SMILES): CN(C(=O)c1cc2c(C(F)F)c(F)ccc2[nH]1)C1COCc2[nH]c(=O)c3cc(F)ccc3c21 (single isomer, unassigned) [Compound 256, 4-(Difluoromethyl)-5-fluoro-N-(8-fluoro-6-oxo-1,4,5,6-tetrahydro-2H-pyrano[3,4-c]isoquinolin-1-yl)-N-methyl-1H-indole-2-carboxamide]
- EC50 (HepDE19 assay): 10 nM

Structure (SMILES): CN(C(=O)c1cc2c(C(F)F)cc(F)cc2[nH]1)C1CNCc2[nH]c(=O)c3cc(F)c(F)cc3c21 (single isomer, unassigned) [Compound 257, N-(8,9-Difluoro-6-oxo-1,2,3,4,5,6-hexahydrobenzo[c][1,7]naphthyridin-1-yl)-4-(difluoromethyl)-6-fluoro-N-methyl-1H-indole-2-carboxamide]
- EC50 (HepDE19 assay): 2200 nM

Structure (SMILES): CN(C(=O)c1cc2c(C(F)F)cc(F)cc2[nH]1)C1CNCc2[nH]c(=O)c3cc(F)c(F)cc3c21 (single isomer, unassigned) [Compound 258, N-(8,9-Difluoro-6-oxo-1,2,3,4,5,6-hexahydrobenzo[c][1,7]naphthyridin-1-yl)-4-(difluoromethyl)-6-fluoro-N-methyl-1H-indole-2-carboxamide]
- EC50 (HepDE19 assay): 20 nM

Structure (SMILES): CN(C(=O)c1cc2c(C(F)F)cc(F)cc2[nH]1)C1CNCc2[nH]c(=O)c3cc(F)ccc3c21 (single isomer, unassigned) [Compound 259, 4-(Difluoromethyl)-6-fluoro-N-(8-fluoro-6-oxo-1,2,3,4,5,6-hexahydrobenzo[c][1,7]naphthyridin-1-yl)-N-methyl-1H-indole-2-carboxamide]
- EC50 (HepDE19 assay): 5100 nM

Structure (SMILES): CN(C(=O)c1cc2c(C(F)F)cc(F)cc2[nH]1)C1CNCc2[nH]c(=O)c3cc(F)ccc3c21 (single isomer, unassigned) [Compound 260, 4-(Difluoromethyl)-6-fluoro-N-(8-fluoro-6-oxo-1,2,3,4,5,6-hexahydrobenzo[c][1,7]naphthyridin-1-yl)-N-methyl-1H-indole-2-carboxamide]
- EC50 (HepDE19 assay): 60 nM

Structure (SMILES): CN(C(=O)c1cc2c(C(F)F)c(F)ccc2[nH]1)C1CNCc2[nH]c(=O)c3cc(F)c(F)cc3c21 (single isomer, unassigned) [Compound 264, N-(8,9-Difluoro-6-oxo-1,2,3,4,5,6-hexahydrobenzo[c][1,7]naphthyridin-1-yl)-4-(difluoromethyl)-5-fluoro-N-methyl-1H-indole-2-carboxamide]
- EC50 (HepDE19 assay): 8230 nM

Structure (SMILES): CN(C(=O)c1cc2c(C(F)F)c(F)ccc2[nH]1)C1CNCc2[nH]c(=O)c3cc(F)c(F)cc3c21 (single isomer, unassigned) [Compound 265, N-(8,9-Difluoro-6-oxo-1,2,3,4,5,6-hexahydrobenzo[c][1,7]naphthyridin-1-yl)-4-(difluoromethyl)-5-fluoro-N-methyl-1H-indole-2-carboxamide]
- EC50 (HepDE19 assay): 20 nM

Structure (SMILES): CN(C(=O)c1cc2c(C(F)F)c(F)ccc2[nH]1)C1CNCc2[nH]c(=O)c3cc(F)ccc3c21 (single isomer, unassigned) [Compound 271, 4-(Difluoromethyl)-5-fluoro-N-(8-fluoro-6-oxo-1,2,3,4,5,6-hexahydrobenzo[c][1,7]naphthyridin-1-yl)-N-methyl-1H-indole-2-carboxamide]
- EC50 (HepDE19 assay): 6700 nM

Structure (SMILES): CN(C(=O)c1cc2c(C(F)F)c(F)ccc2[nH]1)C1CNCc2[nH]c(=O)c3cc(F)ccc3c21 (single isomer, unassigned) [Compound 272, 4-(Difluoromethyl)-5-fluoro-N-(8-fluoro-6-oxo-1,2,3,4,5,6-hexahydrobenzo[c][1,7]naphthyridin-1-yl)-N-methyl-1H-indole-2-carboxamide]
- EC50 (HepDE19 assay): 70 nM
